58 molecules from ChEMBL document CHEMBL1139221, “2-(4-Chlorobenzyl)-3-hydroxy-7,8,9,10-tetrahydrobenzo[H]quinoline-4-carboxylic acid (PSI-697): identification of a clinical candidate from the quinoline salicylic acid series of P-selectin antagonists” (J Med Chem, 2007) can be followed below.

One series has as its target T1, P-selectin (Homo sapiens, UniProt P16109).
T1 sequence (P16109 whole entry): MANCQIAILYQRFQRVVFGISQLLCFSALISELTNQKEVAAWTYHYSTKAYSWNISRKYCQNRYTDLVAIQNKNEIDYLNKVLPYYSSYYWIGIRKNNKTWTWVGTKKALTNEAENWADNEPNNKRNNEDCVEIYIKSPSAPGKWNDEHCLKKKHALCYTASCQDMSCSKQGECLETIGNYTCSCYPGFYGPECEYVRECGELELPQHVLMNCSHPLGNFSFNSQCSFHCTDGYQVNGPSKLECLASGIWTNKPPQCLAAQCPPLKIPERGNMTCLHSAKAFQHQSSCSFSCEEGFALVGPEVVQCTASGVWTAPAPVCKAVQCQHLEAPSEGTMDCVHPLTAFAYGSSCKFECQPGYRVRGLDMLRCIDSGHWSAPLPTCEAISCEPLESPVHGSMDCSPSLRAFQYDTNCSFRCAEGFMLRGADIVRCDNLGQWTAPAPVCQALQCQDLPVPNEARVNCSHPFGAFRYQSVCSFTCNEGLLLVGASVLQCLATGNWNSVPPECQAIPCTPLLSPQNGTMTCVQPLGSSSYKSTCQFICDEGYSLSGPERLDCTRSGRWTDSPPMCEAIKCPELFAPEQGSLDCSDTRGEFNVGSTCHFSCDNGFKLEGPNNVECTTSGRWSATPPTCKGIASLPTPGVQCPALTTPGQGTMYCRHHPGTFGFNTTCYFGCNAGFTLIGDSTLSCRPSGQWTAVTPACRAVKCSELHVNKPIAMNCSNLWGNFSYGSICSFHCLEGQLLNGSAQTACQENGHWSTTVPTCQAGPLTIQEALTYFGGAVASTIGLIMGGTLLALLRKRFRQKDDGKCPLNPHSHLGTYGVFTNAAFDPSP
In words: (§1) Inhibition of P-Selectin by Biacore assay.

For series [1], the species on record is Rattus norvegicus. In words: AUC in Sprague-Dawley rat. It counts as ADME, organism-based, Plasma. Conditions: in vivo.
Series [2] in a line: Bioavailability in Sprague-Dawley rat. The class given is ADME, organism-based. Conditions: in vivo.
The nature of series [3]: Solubility at pH 7.4. The class given is physicochemical. The note with it: buffer.
The target in series [4] is T2, P-selectin (Homo sapiens) (UniProt P16109).
T2 sequence (whole entry): T1 sequence (P16109 whole entry)
In words: Inhibition of P-Selectin by Biacore assay at 500 uM. Background: Surface plasmon resonance follows binding to a sensor surface in real time, without labels.

In series [5] the target is T2, P-selectin (Homo sapiens). The description is as §1.
Series [6] deals with T2, P-selectin (Homo sapiens). In words: Inhibition of P-Selectin by Biacore assay at 250 uM.
The species entered for series [7] is Mus musculus. Kind of series: AUC in C57 mouse. The note with it: in vivo. It counts as ADME, organism-based, Plasma.
Series [8] in a line: Bioavailability in C57 mouse. It counts as ADME, organism-based. The note with it: in vivo.
Series [9] can be described thus: Inhibition of leukocyte rolling in mouse at 50 mg/kg, po. The class given is functional.
Series [10] can be described thus: Oral bioavailability in Beagle dog at 15 mg/kg. The class given is ADME, organism-based, Canis lupus familiaris. The note with it: in vivo.
Series [11] deals with Rattus norvegicus. Kind of series: Inhibition of neointimal hyperplasia in Sprague-Dawley rat carotid ballon injury model at 30 mg/kg, po. It counts as functional.
For series [12], the system named is Mus musculus. In words: Inhibition of aortic lesion in apo E -/- mouse model at 100 mg/kg. The class given is functional. Conditions: Aorta.
A short description of series [13]: Stability in rat liver microsome. The class given is ADME. Conditions: liver microsomes. In general terms: Microsomes from liver hold many membrane-bound enzymes, among them those of drug oxidation.

Values after ≈ are worked out from the molar mass of the structure shown. Active and inactive are the calls of the source.

Usually IC50 stands for the concentration at which inhibition is half-maximal. A higher IC50 goes with weaker potency in that assay. For orientation: bioavailability means dose-corrected exposure relative to a reference, in per cent. In general, solubility refers to the concentration that dissolves in the medium under given conditions. A higher solubility goes with much dissolved substance. At P-selectin, `O=C(O)c1c(O)c(Cc2c[nH]c3ccc(Cl)cc23)nc2c3c(ccc12)CCCC3` had an IC50 of 175 µM. The same molecule showed an AUC/dose in the series listed under Rattus norvegicus [1] of 0.096 µg·h/mL. The bioavailability in series [2] was 5%. This molecule showed a solubility in series [3] of 20 µg/mL (≈ 49.2 µM).
One may read the inhibition as the relative decrease from the control value, in per cent. A high value points to a strong effect. With `O=C(O)c1c(O)c(Cc2ccc(Cl)cc2)nc2ccc(-c3ccccc3)cc12`, the inhibition in series [4] amounted to 38%.
Consider `Cc1cccc2c(C(=O)O)c(O)c(Cc3c[nH]c4ccccc34)nc12`, for which, in series [4], the inhibition was determined as 11%.
For `O=C(O)c1c(O)c(Cc2c[nH]c3ccccc23)nc2ccc(OC(F)(F)F)cc12`, the result in series [5] was inactive.
`Nc1c(Cc2ccc(Cl)cc2)nc2c3c(ccc2c1C(=O)O)CCCC3` returned an inhibition in series [6] of 15%.
On to `O=C(O)c1c(O)c(Cc2ccc(Cl)cc2)nc2ccccc12`, for which the outcome in [5] was inactive.
The inhibition in vivo is the percentage by which the read-out fell short of the control. Turning to `O=C(O)c1c(O)c(Cc2c[nH]c3ccccc23)nc2c3c(ccc12)CCCC3`, the IC50 at P-selectin worked out at 225 µM. The AUC/dose in the series filed under Rattus norvegicus [1] came to 0.607 µg·h/mL; in the series listed under Mus musculus [7] it was 0.218 µg·h/mL. Moreover, the figures for the bioavailability in series [8] and in series [2] were 30% and 41%, respectively. The molecule also had an inhibition in vivo at 50 mg/kg in series [9] of 62%.
Turning to `Cc1c(Cc2nc3c4c(ccc3c(C(=O)O)c2O)CCCC4)sc2ccccc12`, in series [4], the inhibition worked out at 22%.
Turning to `O=C(O)c1c(O)c(Cc2c[nH]c3ccccc23)nc2ccc(Br)cc12`, the result in [5] was inactive.
As to `CCc1cccc2c(C(=O)O)c(O)c(Cc3c[nH]c4ccccc34)nc12`, the inhibition in series [4] turned out to be 19%.
As to `O=C(O)c1c(O)c(Cc2ccc(Cl)cc2)nc2c3c(ccc12)CCN(Cc1ccccc1)C3`, in series [5], the result was inactive.
As to `O=C(Nc1c(Cc2ccc(Cl)cc2)nc2c3c(ccc2c1C(=O)O)CCCC3)c1ccccc1`, the inhibition in [6] turned out to be 19%.
Molecule `O=C(O)c1c(O)c(Cc2ccc(Cl)cc2)nc2c3c(ccc12)CCCC3` [PSI-697] had an IC50 against P-selectin of 125 µM. The AUC/dose in the series filed under Rattus norvegicus [1] was determined as 0.62 µg·h/mL; in the series listed under Mus musculus [7], 1.5 µg·h/mL. The bioavailability in series [8] worked out at 100%; in series [2], 20%; in series [10], 58%. Moreover, 50 mg/kg produced 56% inhibition in vivo in [9]. This molecule came in with an inhibition in vivo at 30 mg/kg with Rattus norvegicus [11] of 40%. The molecule also gave an inhibition in vivo at 100 mg/kg in the series with Mus musculus [12] of 49%.
For `Cc1ccc2c(C(=O)O)c(O)c(Cc3ccc(Cl)cc3)nc2c1`, the inhibition in [4] was 12%.
For `O=C(O)c1c(Cc2ccc(Cl)cc2)nc2c3c(ccc2c1O)CCCC3`, the result in series [5] was inactive.
For the molecule `Cc1ccc2nc(Cc3c[nH]c4ccccc34)c(O)c(C(=O)O)c2c1`, in series [5], the outcome was inactive.
As for `O=C(O)c1ccc(Cc2nc3c4c(ccc3c(C(=O)O)c2O)CCCC4)cc1`, in [4], the inhibition was 10%.
On P-selectin, `O=C(O)c1c(O)c(Cc2c[nH]c3ccc(Cl)cc23)nc2c(C(F)(F)F)cccc12` showed an IC50 of 250 µM. The same molecule gave an inhibition in vivo at 50 mg/kg in series [9] of 23%.
In turn, `CCc1ccc2c(C(=O)O)c(O)c(Cc3ccc(Cl)cc3)nc2c1` gave an inhibition in series [4] of 19%.
The same measure, in the same setting: to `CC(=O)n1cc(Cc2nc3c4c(ccc3c(C(=O)O)c2O)CCCC4)c2ccccc21` belongs 34%.
For orientation: half-life means the time needed for the level to fall by half in the phase considered. Low values mean rapid decline, high ones slow decline. The molecule `O=C(O)c1c(O)c(Cc2cccc(Cl)c2)nc2c3c(ccc12)CCCC3` displayed an IC50 against P-selectin of 138 µM. Also, in series [13], the half-life is 6 min.
Regarding `O=C(O)c1c(O)c(Cc2c[nH]c3ccccc23)nc2cc(Br)ccc12`, the result in [5] was inactive.
Still for that read-out and setting: to `O=C(O)c1c(O)c(Cc2c[nH]c3ccccc23)nc2ccccc12` belongs “inactive”.
Molecule `O=C(O)c1c(O)c(Cc2c[nH]c3ccccc23)nc2c(Br)cccc12` came in with an inhibition in series [4] of 15%.
Same read-out and setting: to `CC(C)(C)c1cccc2c(C(=O)O)c(O)c(Cc3ccc(Cl)cc3)nc12` belongs 12%.
On to `O=C(OCc1ccccc1)c1c(OCc2ccccc2)c(Cc2ccc(Cl)cc2)nc2c3c(ccc12)CCCC3`, for which the result in [5] was inactive.
As for `NC(=O)N1CCc2ccc3c(C(=O)O)c(O)c(Cc4ccc(Cl)cc4)nc3c2C1`, the outcome in series [5] was inactive.
Still for that read-out and setting: to `COc1ccc(-c2ccccc2)c2nc(Cc3ccc(Cl)cc3)c(O)c(C(=O)O)c12` belongs “inactive”; to `CCOC(=O)N1CCc2ccc3c(C(=O)O)c(O)c(Cc4ccc(Cl)cc4)nc3c2C1`, “inactive”; to `O=C(O)c1c(O)c(Cc2c[nH]c3ccccc23)nc2ccc(F)cc12`, “inactive”.
Regarding `O=C(O)c1c(O)c(Cc2c[nH]c3ccccc23)nc2c(OC(F)(F)F)cccc12`, in series [4], the inhibition is 18%.
For `CC(C)C(=O)Oc1c(Cc2ccc(Cl)cc2)nc2c3c(ccc2c1C(=O)O)CCCC3`, in series [6], the inhibition is 13%.
In the case of `CC(C)OC(=O)n1cc(Cc2nc3c4c(ccc3c(C(=O)O)c2O)CCCC4)c2ccccc21`, the result in [5] was inactive.
On the same count and under the same terms, to `O=C(O)c1c(O)c(Cc2ccc(Cl)cc2)nc2c3c(ccc12)CCN(C(=O)c1ccccc1)C3` belongs “inactive”.
At P-selectin, `O=C(O)c1c(O)c(Cc2ccccc2Cl)nc2c3c(ccc12)CCCC3` showed an IC50 of 123 µM. In series [13], this molecule registered a half-life of 6 min.
On P-selectin, `O=C(O)c1c(O)c(-c2c[nH]c3ccccc23)nc2c3c(ccc12)CCCC3` had an IC50 of 225 µM.
In turn, `COc1c(Cc2ccc(Cl)cc2)nc2c3c(ccc2c1C(=O)O)CCCC3` displayed an inhibition in series [6] of 20%.
For the molecule `Cc1ccc2[nH]cc(Cc3nc4c5c(ccc4c(C(=O)O)c3O)CCCC5)c2c1`, the midpoint of inhibition at P-selectin, the IC50, lay at 200 µM.
In [4], `O=C(O)c1c(O)c(Cc2c[nH]c3ccccc23)nc2c(C(F)(F)F)cccc12` had an inhibition of 15%.
As for `O=C(O)c1c(O)c(Cc2ccc(Cl)cc2)nc2c3c(ccc12)CCNC3`, the outcome in [5] was inactive.
Same read-out and setting: the value for `O=C(O)c1c(O)c(Cc2cn(C(=O)Cc3ccccc3)c3ccccc23)nc2c3c(ccc12)CCCC3` was “inactive”; that for `CC(=O)N1CCc2ccc3c(C(=O)O)c(O)c(Cc4ccc(Cl)cc4)nc3c2C1` was “inactive”.
Molecule `O=C(O)c1c(O)c(Cc2ccc(Cl)cc2)nc2c(C(=O)O)cccc12` returned an inhibition in [4] of 8%.
Regarding `CC(C)c1cccc2c(C(=O)O)c(O)c(Cc3c[nH]c4ccccc34)nc12`, the IC50 against P-selectin was determined as 415 µM.
The same measure, in the same setting: to `O=C(Oc1c(Cc2ccc(Cl)cc2)nc2c3c(ccc2c1C(=O)O)CCCC3)c1cccs1` belongs 175 µM.
As to `Cc1ccc2c(C(=O)O)c(O)c(Cc3c[nH]c4ccccc34)nc2c1`, in series [5], the outcome was inactive.
With `O=C(O)c1c(O)c(Cc2csc3ccc(Cl)cc23)nc2c3c(ccc12)CCCC3`, the outcome in series [5] was inactive.
The same measure, in the same setting: to `CC(C)N1CCc2ccc3c(C(=O)O)c(O)c(Cc4ccc(Cl)cc4)nc3c2C1` belongs “inactive”; to `O=C(O)c1c(O)c(Cc2c[nH]c3ccccc23)nc2c(Cl)cccc12`, “inactive”.
As for `O=C(O)c1c(O)c(Cc2coc3ccccc23)nc2c3c(ccc12)CCCC3`, the IC50 against P-selectin was 225 µM.
With `CCc1ccc2c(C(=O)O)c(O)c(Cc3c[nH]c4ccccc34)nc2c1`, the outcome in [5] was inactive.
`N#Cc1ccc(Cc2nc3c4c(ccc3c(C(=O)O)c2O)CCCC4)cc1`: on P-selectin, the IC50 worked out at 500 µM.
On to `CCN1CCc2ccc3c(C(=O)O)c(O)c(Cc4ccc(Cl)cc4)nc3c2C1`, for which the outcome in series [5] was inactive.
Regarding `O=C(O)c1c(O)c(Cc2c[nH]c3ccccc23)nc2c(F)cccc12`, the result in series [5] was inactive.
On to `O=C(O)c1c(O)c(Cc2ccc(Cl)cc2)nc2c(F)cccc12`, for which the inhibition in series [4] was found to be 12%.
On P-selectin, `O=C(O)c1c(O)c(Cc2ccccc2)nc2c3c(ccc12)CCCC3` registered an IC50 of 413 µM.
On to `CC(=O)Nc1c(Cc2ccc(Cl)cc2)nc2c3c(ccc2c1C(=O)O)CCCC3`, for which the inhibition in series [6] turned out to be 10%.
As for `O=C(O)c1c(O)c(Cc2ccc(Cl)c(Cl)c2)nc2c3c(ccc12)CCCC3`, in [4], the inhibition was found to be 36%.
